Results: patent publication US20030229451A1, “Methods and systems for analyzing complex biological systems” (priority 2001, published 2003)

Tested on: Saccharomyces cerevisiae wild type strain BY4743
Experiment: AF1 metabolite analysis (GC-MS, LC-MS) of yeast cells treated with antifungal drugs
Assay type: cell-based
Conditions: for # Compounds perturbed: 2x MIC, two hours

With `C[C@@H]1[C@H](O)[C@@H](C)/C=C/C=C/C=C/C=C/C=C/C=C/C=C/[C@H](O[C@@H]2O[C@H](C)[C@@H](O)[C@H](N)[C@@H]2O)C[C@@H]2O[C@](O)(C[C@@H](O)C[C@@H](O)[C@H](O)CC[C@@H](O)C[C@@H](O)CC(=O)O[C@H]1C)C[C@H](O)[C@H]2C(=O)O` [Amphoteracin B] the “# Compounds perturbed” value (P < 0.05) was 16, the “# Compounds perturbed” value (P < 0.1) was 21 and the “Fold Change” value (platform GC) was −0.933. For the same molecule, the “Fold Change, TMS mevalonic acid lactone” value (platform GC) was −0.9767, the “Fold Change, alanine” value (platform GC) was −0.7773 and the “Fold Change, asparagine” value (platform GC) was −1. The “Fold Change, aspartic acid” value (platform GC) was −0.9743, the “Fold Change, campesterol” value (platform GC) was 0 and the “Fold Change, desmosterol” value (platform GC) was 0. For the same molecule, the “Fold Change, disaccaride1” value (platform GC) was −1, the “Fold Change, disaccaride2” value (platform GC) was −0.9977 and the “Fold Change, disaccaride3” value (platform GC) was −0.9977. For the same molecule, the “Fold Change, ergosterol” value (platform GC) was 2.303, the “Fold Change, fucosterol” value (platform GC) was −0.6553 and the “Fold Change, glutamine” value (platform GC) was −0.9116. For the same molecule, the “Fold Change, glycanopyrose” value (platform GC) was −0.958, the “Fold Change, glycerol” value (platform GC) was −0.815 and the “Fold Change, glycine” value (platform GC) was 0.8807. For the same molecule, the “Fold Change, hexadecanoic acid” value (platform GC) was −0.2427, the “Fold Change, iso citric acid” value (platform GC) was −0.6183 and the “Fold Change, isoleucine” value (platform GC) was −0.9533. For the same molecule, the “Fold Change, lanosterol” value (platform GC) was −1, the “Fold Change, leucine” value (platform GC) was −0.9443 and the “Fold Change, lysine” value (platform GC) was −0.3925. For the same molecule, the “Fold Change, malic acid” value (platform GC) was −0.963, the “Fold Change, mevalonic acid lactone” value (platform GC) was −0.1276 and the “Fold Change, octadecanoic acid” value (platform GC) was 0.21. The “Fold Change, oleic acid” value (platform GC) was −0.4593, the “Fold Change, ornithine2” value (platform GC) was −1 and the “Fold Change, ornithine3” value (platform GC) was −0.9853. For the same molecule, the “Fold Change, palmiteliadic acid” value (platform GC) was 0.515, the “Fold Change, phenylalanine” value (platform GC) was −0.9797 and the “Fold Change, phosphate” value (platform GC) was −0.007333. For the same molecule, the “Fold Change, pyrimidine” value (platform GC) was −0.185, the “Fold Change, squalene” value (platform GC) was −0.5745 and the “Fold Change, tetradecanoic acid” value (platform GC) was 0.07967. For the same molecule, the “Fold Change, threonine2” value (platform GC) was −0.8553, the “Fold Change, threonine3” value (platform GC) was −0.8933 and the “Fold Change, tms glutamine3” value (platform GC) was −0.8935. The “Fold Change, tms lysine4” value (platform GC) was −0.9783, the “Fold Change, tms tyrosine2” value (platform GC) was −0.3593 and the “Fold Change, tms tyrosine3” value (platform GC) was −0.9473. The “Fold Change, valine” value (platform GC) was −0.8673, the “Fold Change, 2-ketobutyric acid” value (platform nLC) was −0.9992 and the “Fold Change, 2-ketoglutaric” value (platform nLC) was 8.791. For the same molecule, the “Fold Change, 3-indolylacetonitri” value (platform nLC) was −0.9998, the “Fold Change, 4-methylcatechol” value (platform nLC) was 0 and the “Fold Change, 4aminobutyrate/dimg” value (platform nLC) was −0.1983. For the same molecule, the “Fold Change, 5hydroxyLtryptophan” value (platform nLC) was 0, the “Fold Change, 6-benzylaminopurine” value (platform nLC) was 0 and the “Fold Change, DLaminoadipic acid” value (platform nLC) was 1.411. For the same molecule, the “Fold Change, NacetylDglucosamine” value (platform nLC) was 0, the “Fold Change, NacetylLglutamate” value (platform nLC) was −0.1078 and the “Fold Change, NacetylLornithine” value (platform nLC) was 0. For the same molecule, the “Fold Change, abscisic acid” value (platform nLC) was 0, the “Fold Change, aconitic acid” value (platform nLC) was 0.5426 and the “Fold Change, adenine” value (platform nLC) was 0. For the same molecule, the “Fold Change, adenosine” value (platform nLC) was 0, the “Fold Change, alanine” value (platform nLC) was 0.1599 and the “Fold Change, allantoic acid” value (platform nLC) was −0.1456. For the same molecule, the “Fold Change, allantoin” value (platform nLC) was 3.97, the “Fold Change, anthranilic acid” value (platform nLC) was 0 and the “Fold Change, arginine” value (platform nLC) was −0.4885. The “Fold Change, argininosuccinate” value (platform nLC) was 0, the “Fold Change, asparagine” value (platform nLC) was 0.1511 and the “Fold Change, aspartic” value (platform nLC) was 0.2407. For the same molecule, the “Fold Change, benzoic acid” value (platform nLC) was 0, the “Fold Change, biotin” value (platform nLC) was 1.077 and the “Fold Change, caffeic acid” value (platform nLC) was −0.5882. For the same molecule, the “Fold Change, catechol” value (platform nLC) was 0, the “Fold Change, cinnamic acid” value (platform nLC) was 0 and the “Fold Change, citricanoic/itaconi.” value (platform nLC) was 0. For the same molecule, the “Fold Change, citrulline” value (platform nLC) was 1659, the “Fold Change, coumaric acid” value (platform nLC) was 0 and the “Fold Change, cytidine” value (platform nLC) was −0.9986. The “Fold Change, cytosine” value (platform nLC) was 0, the “Fold Change, decanoic acid” value (platform nLC) was −0.08716 and the “Fold Change, diaminopimelic acid” value (platform nLC) was 0. The “Fold Change, dihydrofolic acid” value (platform nLC) was 0, the “Fold Change, estrone” value (platform nLC) was 0 and the “Fold Change, farnesol” value (platform nLC) was 0. For the same molecule, the “Fold Change, folic acid” value (platform nLC) was 0, the “Fold Change, fumaric/3m2oxobutan” value (platform nLC) was 0.4423 and the “Fold Change, gallic acid” value (platform nLC) was 0.1622. The “Fold Change, gibberellic” value (platform nLC) was 0, the “Fold Change, glucosamine6PO4” value (platform nLC) was −0.9951 and the “Fold Change, glutamic/acetylseri” value (platform nLC) was 0.1414. For the same molecule, the “Fold Change, glutamine/lysine” value (platform nLC) was 0.07919, the “Fold Change, guanine” value (platform nLC) was 0 and the “Fold Change, guanosine” value (platform nLC) was 1.131. For the same molecule, the “Fold Change, histidine” value (platform nLC) was 0, the “Fold Change, homogentisic/uric” value (platform nLC) was 0 and the “Fold Change, hydrocortisone” value (platform nLC) was 0. For the same molecule, the “Fold Change, hypoxanthine” value (platform nLC) was 0.1655, the “Fold Change, indole3pyruvic acid” value (platform nLC) was 0 and the “Fold Change, inostol/glucos/sorb” value (platform nLC) was −0.5905. The “Fold Change, isocitric/citric/qu” value (platform nLC) was 2.549, the “Fold Change, jasmonic acid” value (platform nLC) was 0 and the “Fold Change, kinetin” value (platform nLC) was 0. The “Fold Change, lactic acid” value (platform nLC) was −0.02583, the “Fold Change, lauric acid” value (platform nLC) was 0.1225 and the “Fold Change, leucine/isoleucine/” value (platform nLC) was 0.1319. The “Fold Change, luteolin” value (platform nLC) was 0, the “Fold Change, malic acid” value (platform nLC) was 0.6212 and the “Fold Change, malonic acid” value (platform nLC) was 0. The “Fold Change, menthol*” value (platform nLC) was −0.07013, the “Fold Change, methionine” value (platform nLC) was 0 and the “Fold Change, nicotinic acid” value (platform nLC) was 0.3131. The “Fold Change, nopaline” value (platform nLC) was 0.3342, the “Fold Change, oleic acid” value (platform nLC) was 0.689 and the “Fold Change, ornithine” value (platform nLC) was 2.534. For the same molecule, the “Fold Change, orotic acid” value (platform nLC) was 8380, the “Fold Change, palmitic acid” value (platform nLC) was 0.3979 and the “Fold Change, phenylalanine” value (platform nLC) was −0.1906. The “Fold Change, phenylpyruvic acid” value (platform nLC) was 0, the “Fold Change, phosphoenolpyruvate” value (platform nLC) was 0 and the “Fold Change, pinitol” value (platform nLC) was 0. For the same molecule, the “Fold Change, pipecolic acid” value (platform nLC) was 0.08112, the “Fold Change, porphobilinogen” value (platform nLC) was 0 and the “Fold Change, proline” value (platform nLC) was 0.4603. The “Fold Change, pyridoxine” value (platform nLC) was −0.1294, the “Fold Change, retinoic acid” value (platform nLC) was 0 and the “Fold Change, salicylic/HObenzoic” value (platform nLC) was 0. The “Fold Change, selenoDLmethionine” value (platform nLC) was 0.8515, the “Fold Change, serine” value (platform nLC) was 0.1091 and the “Fold Change, shikimic acid” value (platform nLC) was 0. For the same molecule, the “Fold Change, sinapinic acid” value (platform nLC) was 0, the “Fold Change, sorbitol/mannitol” value (platform nLC) was 0.2162 and the “Fold Change, succinic” value (platform nLC) was 0.8663. The “Fold Change, sucrose” value (platform nLC) was 0.4493, the “Fold Change, sugar-phosphate” value (platform nLC) was −0.1067 and the “Fold Change, tetradecanoic acid” value (platform nLC) was −0.07723. The “Fold Change, threonine/homoserin” value (platform nLC) was 0.1267, the “Fold Change, thymine” value (platform nLC) was 0 and the “Fold Change, tryptophan” value (platform nLC) was 1.142. The “Fold Change, tyrosine” value (platform nLC) was 0.0982, the “Fold Change, uracil” value (platform nLC) was 1.511 and the “Fold Change, uridine” value (platform nLC) was 0.1126. For the same molecule, the “Fold Change, urocanic acid” value (platform nLC) was 0, the “Fold Change, valine” value (platform nLC) was 0.1624 and the “Fold Change, xanthosineDiH2O” value (platform nLC) was 0. For the same molecule, the “Fold Change, zeatin” value (platform nLC) was 0, the “Fold Change, 4-aminobenzoic acid” value (platform pLC) was 0 and the “Fold Change, 4-methylcatechol” value (platform pLC) was 0. For the same molecule, the “Fold Change, 4ambutyrate/dimglyc” value (platform pLC) was 0.01279, the “Fold Change, 5hydroxyLtryptophan” value (platform pLC) was 0 and the “Fold Change, 6benzylaminopurine” value (platform pLC) was 0. For the same molecule, the “Fold Change, DL-aminoadipic acid” value (platform pLC) was 0.4703, the “Fold Change, NacetylDglucosamine” value (platform pLC) was 0 and the “Fold Change, NacetylLglutamate” value (platform pLC) was 0. For the same molecule, the “Fold Change, NacetylLornithine” value (platform pLC) was 1.319, the “Fold Change, abscisic acid” value (platform pLC) was 0 and the “Fold Change, adenine” value (platform pLC) was 0.1153. For the same molecule, the “Fold Change, adenosine” value (platform pLC) was 0, the “Fold Change, alanine/sarcosine” value (platform pLC) was 0.2602 and the “Fold Change, allantoic acid” value (platform pLC) was 0. The “Fold Change, anthranilic acid” value (platform pLC) was 0, the “Fold Change, arginine” value (platform pLC) was 0.4662 and the “Fold Change, argininosuccinate” value (platform pLC) was 0. The “Fold Change, asparagine” value (platform pLC) was 0.6344, the “Fold Change, aspartic acid” value (platform pLC) was 0.3594 and the “Fold Change, biotin” value (platform pLC) was 0. For the same molecule, the “Fold Change, caffeine” value (platform pLC) was 0, the “Fold Change, citric acid TME” value (platform pLC) was 0 and the “Fold Change, citrulline” value (platform pLC) was 1.798. For the same molecule, the “Fold Change, cytidine” value (platform pLC) was 0, the “Fold Change, cytosine” value (platform pLC) was 0 and the “Fold Change, diaminopimelic acid” value (platform pLC) was 0. The “Fold Change, dihydrofolic acid” value (platform pLC) was 0, the “Fold Change, dipicolinic acid” value (platform pLC) was 0 and the “Fold Change, folic acid” value (platform pLC) was 0. For the same molecule, the “Fold Change, glucosamine” value (platform pLC) was 0, the “Fold Change, glucosamine6PO4” value (platform pLC) was 0 and the “Fold Change, glutamate” value (platform pLC) was 0.4341. For the same molecule, the “Fold Change, glutamine/lysine” value (platform pLC) was 0.3981, the “Fold Change, glutathione” value (platform pLC) was −0.03348 and the “Fold Change, guanosine” value (platform pLC) was 0.7598. The “Fold Change, histidine” value (platform pLC) was 0, the “Fold Change, hydrocortisone” value (platform pLC) was 0 and the “Fold Change, hypoxanthine” value (platform pLC) was 0.2057. The “Fold Change, itaconic acid dimes” value (platform pLC) was 0, the “Fold Change, kinetin” value (platform pLC) was 0 and the “Fold Change, leucine/isoleucine/” value (platform pLC) was 0.2746. For the same molecule, the “Fold Change, luteolin” value (platform pLC) was 0, the “Fold Change, mannitol” value (platform pLC) was 0.4543 and the “Fold Change, methionine” value (platform pLC) was 0.3299. The “Fold Change, mevalonic lactone” value (platform pLC) was −0.4606, the “Fold Change, niacinamide” value (platform pLC) was 0 and the “Fold Change, nicotinic acid” value (platform pLC) was −0.9989. The “Fold Change, nopaline” value (platform pLC) was 0, the “Fold Change, ornithine” value (platform pLC) was 0.5049 and the “Fold Change, phenylalanine” value (platform pLC) was 0.4036. For the same molecule, the “Fold Change, phosphoenolpyruvate” value (platform pLC) was 0, the “Fold Change, pipecolic acid” value (platform pLC) was 0.5237 and the “Fold Change, progesterone” value (platform pLC) was 0. The “Fold Change, proline” value (platform pLC) was 0.6707, the “Fold Change, pyridoxine” value (platform pLC) was −0.1684 and the “Fold Change, riboflavin” value (platform pLC) was 0. For the same molecule, the “Fold Change, selenoDLmethionine” value (platform pLC) was 1.178, the “Fold Change, serine” value (platform pLC) was 0.2011 and the “Fold Change, sugar-phosphate” value (platform pLC) was 0. The “Fold Change, thiamine” value (platform pLC) was 0, the “Fold Change, threonine/homoserin” value (platform pLC) was 0.3145 and the “Fold Change, thymine” value (platform pLC) was 0. For the same molecule, the “Fold Change, tryptophan” value (platform pLC) was 0, the “Fold Change, tyrosine” value (platform pLC) was 0.2347 and the “Fold Change, uric acid” value (platform pLC) was 308. For the same molecule, the “Fold Change, urocanic acid” value (platform pLC) was 0, the “Fold Change, xanthosine(diH2O)” value (platform pLC) was 0 and the “Fold Change, zeatin” value (platform pLC) was 0.
